Laboratory results reported in patent US20250361209A1, “CRYSTAL FORMS OF N-(3-FLUOROPHENYL)-6-(6,7-DIMETHOXYQUINOLIN-4-OXY)-3,4-DIHYDROQUINOLINE-1(2H)-CARBOXAMIDE METHANESULFONATE AND PREPARATION METHOD THEREOF” (Shanghai Yi Feng Biotechnology Co., Ltd., priority 2023, published 2025).
Read-outs that look alike come from different tables or passages of the source.

Key:
[1] = Test of influencing factors of crystalline forms A, B and C (total impurity); type: physicochemical; conditions: methanesulfonate
Text: Example 3 Test of Influencing Factors of Crystalline Forms A, B and C

[2] = Comparison of oral absorption of K-13 (free base) and its methanesulfonate, plasma concentration-time and PK; type: in vivo, BALB/c mice; conditions: 10 mg · kg^−1 PO; for concentration at 8 h / concentration at 24 h / concentration at 0 h: 10 mg · kg^−1, BALB/c mice
Text: Comparison of oral absorption of K-13 (free base) and its methanesulfonate (N-(3-fluorophenyl)-6-(6. 7-dimethoxyquinolin-4-oxy)-3.4-dihydroquinoline-1(2H)-carboxamide methanesulfonate)

[3] = BALB/c mice, analyte K-13-1, methanesulfonate

COc1cc2nccc(Oc3ccc4c(c3)CCCN4C(=O)Nc3cccc(F)c3)c2cc1OC [Crystalline form A, N-(3-fluorophenyl)-6-(6,7-dimethoxyquinolin-4-oxy)-3,4-dihydroquinoline-1(2H)-carboxamide methanesulfonate]
Total impurity % ([1]; High humidity (RH75%), 0 day): 0.91% | Total impurity % ([1]; High humidity (RH75%), 5 days): 0.92% | Total impurity % ([1]; High humidity (RH75%), 10 days): 0.99% | Total impurity % ([1]; High humidity (RH75%), 30 days): 1.25% | Total impurity % ([1]; High temperature (60° C.), 0 day): 0.91% | Total impurity % ([1]; High temperature (60° C.), 5 days): 4.50% | Total impurity % ([1]; High temperature (60° C.), 10 days): 6.96% | Total impurity % ([1]; Illumination (5000 + 500 lux), 0 day): 0.91% | Total impurity % ([1]; Illumination (5000 + 500 lux), 5 days): 1.89% | Total impurity % ([1]; Illumination (5000 + 500 lux), 10 days): 3.70% | Total impurity % ([1]; Illumination (5000 + 500 lux), 30 days): 4.21%

COc1cc2nccc(Oc3ccc4c(c3)CCCN4C(=O)Nc3cccc(F)c3)c2cc1OC [K-13-1, N-(3-fluorophenyl)-6-(6,7-dimethoxyquinolin-4-oxy)-3,4-dihydroquinoline-1(2H)-carboxamide]
plasma Concentration of K-13-1, PO-1 ([2]; BALB/c mice, 0.083 h, animal PO-1): 29.6 ng/mL | plasma Concentration of K-13-1, PO-2 ([2]; BALB/c mice, 0.083 h, animal PO-2): 46.6 ng/mL | plasma Concentration of K-13-1, Mean ([2]; BALB/c mice, 0.083 h, mean): 38.1 ng/mL | plasma Concentration of K-13-1, PO-1 ([2]; BALB/c mice, 0.25 h, animal PO-1): 186 ng/mL | plasma Concentration of K-13-1, PO-2 ([2]; BALB/c mice, 0.25 h, animal PO-2): 215 ng/mL | plasma Concentration of K-13-1, Mean ([2]; BALB/c mice, 0.25 h, mean): 201 ng/mL | plasma Concentration of K-13-1, PO-1 ([2]; BALB/c mice, 0.5 h, animal PO-1): 480 ng/mL | plasma Concentration of K-13-1, PO-2 ([2]; BALB/c mice, 0.5 h, animal PO-2): 865 ng/mL | plasma Concentration of K-13-1, Mean ([2]; BALB/c mice, 0.5 h, mean): 673 ng/mL | plasma Concentration of K-13-1, PO-1 ([2]; BALB/c mice, 1 h, animal PO-1): 551 ng/mL | plasma Concentration of K-13-1, PO-2 ([2]; BALB/c mice, 1 h, animal PO-2): 420 ng/mL | plasma Concentration of K-13-1, Mean ([2]; BALB/c mice, 1 h, mean): 485 ng/mL | plasma Concentration of K-13-1, PO-1 ([2]; BALB/c mice, 2 h, animal PO-1): 136 ng/mL | plasma Concentration of K-13-1, PO-2 ([2]; BALB/c mice, 2 h, animal PO-2): 485 ng/mL | plasma Concentration of K-13-1, Mean ([2]; BALB/c mice, 2 h, mean): 311 ng/mL | plasma Concentration of K-13-1, PO-1 ([2]; BALB/c mice, 4 h, animal PO-1): 220 ng/mL | plasma Concentration of K-13-1, PO-2 ([2]; BALB/c mice, 4 h, animal PO-2): 395 ng/mL | plasma Concentration of K-13-1, Mean ([2]; BALB/c mice, 4 h, mean): 308 ng/mL | plasma Concentration of K-13-1, PO-1 ([2]; BALB/c mice, 24 h, animal PO-1): BLOQ | AUC0-inf ([2]; BALB/c mice, analyte K-13-1): 2894 ng·h/mL | AUC0-t ([2]; BALB/c mice, analyte K-13-1): 2870 ng·h/mL | Cmax ([2]; BALB/c mice, analyte K-13-1): 673 ng/mL | Kel ([2]; BALB/c mice, analyte K-13-1): 0.200 h⁻¹ | F (oral bioavailability) ([2]; BALB/c mice, analyte K-13-1, listed as free base): 20% | concentration at 8 h ([2]; BALB/c, mouse, plasma, po, 8 h, animal PO-1, read-out: plasma Concentration of K-13-1, PO-1): 97.2 ng/mL | concentration at 8 h ([2]; BALB/c, mouse, plasma, po, 8 h, animal PO-2, read-out: plasma Concentration of K-13-1, PO-2): 58.8 ng/mL | concentration at 8 h ([2]; BALB/c, mouse, plasma, po, 8 h, mean, read-out: plasma Concentration of K-13-1, Mean): 78 ng/mL | concentration at 24 h ([2]; BALB/c, mouse, plasma, po, 24 h, animal PO-2, read-out: plasma Concentration of K-13-1, PO-2): 4.65 ng/mL | concentration at 24 h ([2]; BALB/c, mouse, plasma, po, 24 h, mean, read-out: plasma Concentration of K-13-1, Mean): 4.65 ng/mL | half-life ([2]; BALB/c, mouse, plasma, po, 10 mg/kg, BALB/c mice, analyte K-13-1): 3.5 h | Tmax ([2]; BALB/c, mouse, plasma, po, 10 mg/kg, BALB/c mice, analyte K-13-1, read-out: Tmax): 0.5 h

COc1cc2nccc(Oc3ccc4c(c3)CCCN4C(=O)Nc3cccc(F)c3)c2cc1OC [K-13-MS-1, N-(3-fluorophenyl)-6-(6,7-dimethoxyquinolin-4-oxy)-3,4-dihydroquinoline-1(2H)-carboxamide methanesulfonate]
increase of in vivo exposure AUClast versus free base ([2]; BALB/c mice): 2.46 times | increase of in vivo exposure Cmax versus free base ([2]; BALB/c mice): 3.14 times | plasma Concentration of K-13-1, PO-1 ([2]; BALB/c mice, 0.083 h, animal PO-1, methanesulfonate): 431 ng/mL | plasma Concentration of K-13-1, PO-2 ([2]; BALB/c mice, 0.083 h, animal PO-2, methanesulfonate): 414 ng/mL | plasma Concentration of K-13-1, Mean ([2]; BALB/c mice, 0.083 h, mean, methanesulfonate): 423 ng/mL | plasma Concentration of K-13-1, PO-1 ([2]; BALB/c mice, 0.25 h, animal PO-1, methanesulfonate): 2175 ng/mL | plasma Concentration of K-13-1, PO-2 ([2]; BALB/c mice, 0.25 h, animal PO-2, methanesulfonate): 2059 ng/mL | plasma Concentration of K-13-1, Mean ([2]; BALB/c mice, 0.25 h, mean, methanesulfonate): 2117 ng/mL | plasma Concentration of K-13-1, PO-1 ([2]; BALB/c mice, 0.5 h, animal PO-1, methanesulfonate): 1868 ng/mL | plasma Concentration of K-13-1, PO-2 ([2]; BALB/c mice, 0.5 h, animal PO-2, methanesulfonate): 1775 ng/mL | plasma Concentration of K-13-1, Mean ([2]; BALB/c mice, 0.5 h, mean, methanesulfonate): 1822 ng/mL | plasma Concentration of K-13-1, PO-1 ([2]; BALB/c mice, 1 h, animal PO-1, methanesulfonate): 1824 ng/mL | plasma Concentration of K-13-1, PO-2 ([2]; BALB/c mice, 1 h, animal PO-2, methanesulfonate): 1317 ng/mL | plasma Concentration of K-13-1, Mean ([2]; BALB/c mice, 1 h, mean, methanesulfonate): 1571 ng/mL | plasma Concentration of K-13-1, PO-1 ([2]; BALB/c mice, 2 h, animal PO-1, methanesulfonate): 922 ng/mL | plasma Concentration of K-13-1, PO-2 ([2]; BALB/c mice, 2 h, animal PO-2, methanesulfonate): 1319 ng/mL | plasma Concentration of K-13-1, Mean ([2]; BALB/c mice, 2 h, mean, methanesulfonate): 1121 ng/mL | plasma Concentration of K-13-1, PO-1 ([2]; BALB/c mice, 4 h, animal PO-1, methanesulfonate): 884 ng/mL | plasma Concentration of K-13-1, PO-2 ([2]; BALB/c mice, 4 h, animal PO-2, methanesulfonate): 981 ng/mL | plasma Concentration of K-13-1, Mean ([2]; BALB/c mice, 4 h, mean, methanesulfonate): 932 ng/mL | plasma Concentration of K-13-1, PO-1 ([2]; BALB/c mice, 8 h, animal PO-1, methanesulfonate): 130 ng/mL | plasma Concentration of K-13-1, PO-2 ([2]; BALB/c mice, 8 h, animal PO-2, methanesulfonate): 89.0 ng/mL | plasma Concentration of K-13-1, Mean ([2]; BALB/c mice, 8 h, mean, methanesulfonate): 109 ng/mL | plasma Concentration of K-13-1, PO-2 ([2]; BALB/c mice, 24 h, animal PO-2, methanesulfonate): BLOQ | plasma Concentration of K-13-1, Mean ([2]; BALB/c mice, 24 h, mean, methanesulfonate): BLOQ | AUC0-inf [2, 3]: 7350 ng·h/mL | AUC0-t [2, 3]: 7051 ng·h/mL | Cmax [2, 3]: 2117 ng/mL | F (oral bioavailability) [2, 3]: 50% | Kel [2, 3]: 0.364 h⁻¹ | T1/2 [2, 3]: 1.9 h | Tmax [2, 3]: 0.25 h | concentration at 0 h ([2]; BALB/c, mouse, plasma, po, animal PO-1, read-out: plasma Concentration of K-13-1, PO-1): 0 ng/mL | concentration at 0 h ([2]; BALB/c, mouse, plasma, po, animal PO-2, read-out: plasma Concentration of K-13-1, PO-2): 0 ng/mL | concentration at 0 h ([2]; BALB/c, mouse, plasma, po, mean, read-out: plasma Concentration of K-13-1, Mean): 0 ng/mL
